Assay results published in ChEMBL document CHEMBL1909294, “Translating clinical findings into knowledge in drug safety evaluation--drug induced liver injury prediction system (DILIps)” (PLoS Comput Biol, 2011).

What was measured:
[1] = test system: Hepatotoxicity;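 on HepSE bilirubinemia: bilirubinemia hepatic side effect score drawn from the DILIps training data, a prediction system for drug-induced liver injury; call rule not given here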;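 on HepSE cholecystitis: Cholecystitis-related hepatic side effect score drawn from the DILIps (drug-induced liver injury prediction) training data set; call rule not given here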;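 on HepSE cholelithiasis: hepatic side effect score for cholelithiasis, drawn from the DILIps training data for predicting drug-induced liver injury; call rule not given here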;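 on HepSE cirrhosis: cirrhosis hepatic side effect score taken from the DILIps (drug-induced liver injury prediction) training set; call rule not given here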;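 on HepSE elevated liver function tests: hepatic side effect score for raised liver function tests, as recorded in the DILIps training set used for predicting drug-induced liver injury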; on HepSE hepatic failure: call rule not given here;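 on HepSE hepatomegaly: hepatic side effect score for hepatomegaly, taken from the training set of the DILIps drug-induced liver injury prediction system; call rule not given here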
[2] = test system: Hepatotoxicity; remark: listed apart in the source;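 on HepSE bilirubinemia: bilirubinemia hepatic side effect score drawn from the DILIps training data, a prediction system for drug-induced liver injury; call rule not given here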;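 on HepSE cholecystitis: Cholecystitis-related hepatic side effect score drawn from the DILIps (drug-induced liver injury prediction) training data set; call rule not given here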;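 on HepSE cholelithiasis: hepatic side effect score for cholelithiasis, drawn from the DILIps training data for predicting drug-induced liver injury; call rule not given here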;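 on HepSE cirrhosis: cirrhosis hepatic side effect score taken from the DILIps (drug-induced liver injury prediction) training set; call rule not given here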;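 on HepSE elevated liver function tests: hepatic side effect score for raised liver function tests, as recorded in the DILIps training set used for predicting drug-induced liver injury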; on HepSE hepatic failure: call rule not given here;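 on HepSE hepatomegaly: hepatic side effect score for hepatomegaly, taken from the training set of the DILIps drug-induced liver injury prediction system; call rule not given here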
[3] = test system: Hepatotoxicity; remark: listed apart in the source;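 on HepSE bilirubinemia: bilirubinemia hepatic side effect score drawn from the DILIps training data, a prediction system for drug-induced liver injury; call rule not given here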;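 on HepSE cholecystitis: Cholecystitis-related hepatic side effect score drawn from the DILIps (drug-induced liver injury prediction) training data set; call rule not given here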;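 on HepSE cholelithiasis: hepatic side effect score for cholelithiasis, drawn from the DILIps training data for predicting drug-induced liver injury; call rule not given here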;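 on HepSE cirrhosis: cirrhosis hepatic side effect score taken from the DILIps (drug-induced liver injury prediction) training set; call rule not given here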;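 on HepSE elevated liver function tests: hepatic side effect score for raised liver function tests, as recorded in the DILIps training set used for predicting drug-induced liver injury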; on HepSE hepatic failure: call rule not given here
[4] = test system: Hepatotoxicity; remark: listed apart in the source;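 on HepSE bilirubinemia: bilirubinemia hepatic side effect score drawn from the DILIps training data, a prediction system for drug-induced liver injury; call rule not given here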;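 on HepSE cholecystitis: Cholecystitis-related hepatic side effect score drawn from the DILIps (drug-induced liver injury prediction) training data set; call rule not given here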;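 on HepSE cholelithiasis: hepatic side effect score for cholelithiasis, drawn from the DILIps training data for predicting drug-induced liver injury; call rule not given here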;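 on HepSE cirrhosis: cirrhosis hepatic side effect score taken from the DILIps (drug-induced liver injury prediction) training set; call rule not given here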;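 on HepSE elevated liver function tests: hepatic side effect score for raised liver function tests, as recorded in the DILIps training set used for predicting drug-induced liver injury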; on HepSE hepatic failure: call rule not given here
[5] = test system: Hepatotoxicity; remark: listed apart in the source; on HepSE hepatic failure: call rule not given here
[6] = test system: Hepatotoxicity; remark: listed apart in the source; on HepSE hepatic failure: call rule not given here
[7] = test system: Hepatotoxicity; remark: listed apart in the source
[8] = test system: Hepatotoxicity; remark: listed apart in the source
[9] = test system: Hepatotoxicity; remark: listed apart in the source
[10] = test system: Hepatotoxicity; remark: listed apart in the source
[11] = test system: Hepatotoxicity; remark: listed apart in the source
[12] = test system: Hepatotoxicity; remark: listed apart in the source
[13] = test system: Hepatotoxicity; remark: listed apart in the source
[14] = test system: Hepatotoxicity; remark: listed apart in the source

## CC(=O)[C@H]1CC[C@H]2[C@@H]3CCC4=CC(=O)CC[C@]4(C)[C@H]3CC[C@]12C [PROGESTERONE]
[1]
  HepSE_bilirubinemia: 0
[2]
  HepSE_cholecystitis: 0
[3]
  HepSE_cholelithiasis: 0
[4]
  HepSE_cirrhosis: 0
[5]
  HepSE_elevated liver function tests: 0
[6]
  HepSE_hepatic failure: 1
[7]
  HepSE_hepatic necrosis: 1
[8]
  HepSE_hepatitis: 1
[9]
  HepSE_hepatomegaly: 0
[10]
  HepSE_jaundice: 1
[11]
  HepSE_liver disease: 0
[12]
  HepSE_liver fatty: 0
[13]
  HepSE_liver function tests abnormal: 0
[14]
  HepSE_Combined Scores: 4

## CC(CN1c2ccccc2Sc2ccccc21)N(C)C (stereo unspecified) [PROMETHAZINE]
[1]
  HepSE_bilirubinemia: 0
[2]
  HepSE_cholecystitis: 0
[3]
  HepSE_cholelithiasis: 0
[4]
  HepSE_cirrhosis: 0
[5]
  HepSE_elevated liver function tests: 0
[6]
  HepSE_hepatic failure: 0
[7]
  HepSE_hepatic necrosis: 0
[8]
  HepSE_hepatitis: 0
[9]
  HepSE_hepatomegaly: 0
[10]
  HepSE_jaundice: 1
[11]
  HepSE_liver disease: 0
[12]
  HepSE_liver fatty: 0
[13]
  HepSE_liver function tests abnormal: 0
[14]
  HepSE_Combined Scores: 1

## CC(C)[N+](C)(CCOC(=O)C1c2ccccc2Oc2ccccc21)C(C)C [PROPANTHELINE]
[1]
  HepSE_bilirubinemia: 0
[2]
  HepSE_cholecystitis: 0
[3]
  HepSE_cholelithiasis: 0
[4]
  HepSE_cirrhosis: 0
[5]
  HepSE_elevated liver function tests: 0
[6]
  HepSE_hepatic failure: 0
[7]
  HepSE_hepatic necrosis: 0
[8]
  HepSE_hepatitis: 0
[9]
  HepSE_hepatomegaly: 0
[10]
  HepSE_jaundice: 0
[11]
  HepSE_liver disease: 0
[12]
  HepSE_liver fatty: 0
[13]
  HepSE_liver function tests abnormal: 0
[14]
  HepSE_Combined Scores: 0

## CCCOc1ccc(C(=O)OCCN(CC)CC)cc1N [PROPARACAINE]
[1]
  HepSE_bilirubinemia: 0
[2]
  HepSE_cholecystitis: 0
[3]
  HepSE_cholelithiasis: 0
[4]
  HepSE_cirrhosis: 0
[5]
  HepSE_elevated liver function tests: 0
[6]
  HepSE_hepatic failure: 0
[7]
  HepSE_hepatic necrosis: 0
[8]
  HepSE_hepatitis: 0
[9]
  HepSE_hepatomegaly: 0
[10]
  HepSE_jaundice: 0
[11]
  HepSE_liver disease: 0
[12]
  HepSE_liver fatty: 0
[13]
  HepSE_liver function tests abnormal: 0
[14]
  HepSE_Combined Scores: 0

## CC(C)c1cccc(C(C)C)c1O [PROPOFOL]
[1]; Liver
  HepSE_bilirubinemia: 0
[2]; Liver
  HepSE_cholecystitis: 0
[3]; Liver
  HepSE_cholelithiasis: 0
[4]; Liver
  HepSE_cirrhosis: 0
[5]; Liver
  HepSE_elevated liver function tests: 0
[6]; Liver
  HepSE_hepatic failure: 0
[7]; Liver
  HepSE_hepatic necrosis: 0
[8]; Liver
  HepSE_hepatitis: 0
[9]; Liver
  HepSE_hepatomegaly: 1
[10]; Liver
  HepSE_jaundice: 0
[11]; Liver
  HepSE_liver disease: 0
[12]; Liver
  HepSE_liver fatty: 0
[13]; Liver
  HepSE_liver function tests abnormal: 0
[14]; Liver
  HepSE_Combined Scores: 1

## CCC(=O)O[C@](Cc1ccccc1)(c1ccccc1)[C@H](C)CN(C)C [PROPOXYPHENE]
[1]
  HepSE_bilirubinemia: 0
[2]
  HepSE_cholecystitis: 0
[3]
  HepSE_cholelithiasis: 0
[4]
  HepSE_cirrhosis: 0
[5]
  HepSE_elevated liver function tests: 0
[6]
  HepSE_hepatic failure: 0
[7]
  HepSE_hepatic necrosis: 0
[8]
  HepSE_hepatitis: 0
[9]
  HepSE_hepatomegaly: 0
[10]
  HepSE_jaundice: 1
[11]
  HepSE_liver disease: 0
[12]
  HepSE_liver fatty: 0
[13]
  HepSE_liver function tests abnormal: 1
[14]
  HepSE_Combined Scores: 2

## CC(C)NCC(O)COc1cccc2ccccc12 (stereo unspecified) [PROPRANOLOL]
[1]
  HepSE_bilirubinemia: 0
[2]
  HepSE_cholecystitis: 0
[3]
  HepSE_cholelithiasis: 0
[4]
  HepSE_cirrhosis: 0
[5]
  HepSE_elevated liver function tests: 0
[6]
  HepSE_hepatic failure: 0
[7]
  HepSE_hepatic necrosis: 0
[8]
  HepSE_hepatitis: 0
[9]
  HepSE_hepatomegaly: 0
[10]
  HepSE_jaundice: 0
[11]
  HepSE_liver disease: 0
[12]
  HepSE_liver fatty: 0
[13]
  HepSE_liver function tests abnormal: 0
[14]
  HepSE_Combined Scores: 0

## CCCc1cc(=O)[nH]c(=S)[nH]1 [PROPYLTHIOURACIL]
[1]; Liver
  HepSE_bilirubinemia: 0
[2]; Liver
  HepSE_cholecystitis: 0
[3]; Liver
  HepSE_cholelithiasis: 0
[4]; Liver
  HepSE_cirrhosis: 0
[5]; Liver
  HepSE_elevated liver function tests: 0
[6]; Liver
  HepSE_hepatic failure: 0
[7]; Liver
  HepSE_hepatic necrosis: 0
[8]; Liver
  HepSE_hepatitis: 1
[9]; Liver
  HepSE_hepatomegaly: 0
[10]; Liver
  HepSE_jaundice: 1
[11]; Liver
  HepSE_liver disease: 0
[12]; Liver
  HepSE_liver fatty: 0
[13]; Liver
  HepSE_liver function tests abnormal: 0
[14]; Liver
  HepSE_Combined Scores: 2

## CNCCCC1c2ccccc2C=Cc2ccccc21 [PROTRIPTYLINE]
[1]; Liver
  HepSE_bilirubinemia: 0
[2]; Liver
  HepSE_cholecystitis: 0
[3]; Liver
  HepSE_cholelithiasis: 0
[4]; Liver
  HepSE_cirrhosis: 0
[5]; Liver
  HepSE_elevated liver function tests: 0
[6]; Liver
  HepSE_hepatic failure: 0
[7]; Liver
  HepSE_hepatic necrosis: 0
[8]; Liver
  HepSE_hepatitis: 0
[9]; Liver
  HepSE_hepatomegaly: 0
[10]; Liver
  HepSE_jaundice: 1
[11]; Liver
  HepSE_liver disease: 0
[12]; Liver
  HepSE_liver fatty: 0
[13]; Liver
  HepSE_liver function tests abnormal: 0
[14]; Liver
  HepSE_Combined Scores: 1

## NC(=O)c1cnccn1 [PYRAZINAMIDE]
[1]
  HepSE_bilirubinemia: 0
[2]
  HepSE_cholecystitis: 0
[3]
  HepSE_cholelithiasis: 0
[4]
  HepSE_cirrhosis: 0
[5]
  HepSE_elevated liver function tests: 0
[6]
  HepSE_hepatic failure: 0
[7]
  HepSE_hepatic necrosis: 0
[8]
  HepSE_hepatitis: 0
[9]
  HepSE_hepatomegaly: 0
[10]
  HepSE_jaundice: 0
[11]
  HepSE_liver disease: 0
[12]
  HepSE_liver fatty: 0
[13]
  HepSE_liver function tests abnormal: 0
[14]
  HepSE_Combined Scores: 0

## CN(C)C(=O)Oc1ccc[n+](C)c1 [PYRIDOSTIGMINE]
[1]
  HepSE_bilirubinemia: 0
[2]
  HepSE_cholecystitis: 0
[3]
  HepSE_cholelithiasis: 0
[4]
  HepSE_cirrhosis: 0
[5]
  HepSE_elevated liver function tests: 0
[6]
  HepSE_hepatic failure: 0
[7]
  HepSE_hepatic necrosis: 0
[8]
  HepSE_hepatitis: 0
[9]
  HepSE_hepatomegaly: 0
[10]
  HepSE_jaundice: 0
[11]
  HepSE_liver disease: 0
[12]
  HepSE_liver fatty: 0
[13]
  HepSE_liver function tests abnormal: 0
[14]
  HepSE_Combined Scores: 0

## CCc1nc(N)nc(N)c1-c1ccc(Cl)cc1 [PYRIMETHAMINE]
[1]
  HepSE_bilirubinemia: 0
[2]
  HepSE_cholecystitis: 0
[3]
  HepSE_cholelithiasis: 0
[4]
  HepSE_cirrhosis: 0
[5]
  HepSE_elevated liver function tests: 0
[6]
  HepSE_hepatic failure: 0
[7]
  HepSE_hepatic necrosis: 0
[8]
  HepSE_hepatitis: 0
[9]
  HepSE_hepatomegaly: 0
[10]
  HepSE_jaundice: 0
[11]
  HepSE_liver disease: 0
[12]
  HepSE_liver fatty: 0
[13]
  HepSE_liver function tests abnormal: 0
[14]
  HepSE_Combined Scores: 0

## OCCOCCN1CCN(C2=Nc3ccccc3Sc3ccccc32)CC1 [QUETIAPINE]
[1]; Liver
  HepSE_bilirubinemia: 0
[2]; Liver
  HepSE_cholecystitis: 0
[3]; Liver
  HepSE_cholelithiasis: 0
[4]; Liver
  HepSE_cirrhosis: 0
[5]; Liver
  HepSE_elevated liver function tests: 0
[6]; Liver
  HepSE_hepatic failure: 0
[7]; Liver
  HepSE_hepatic necrosis: 0
[8]; Liver
  HepSE_hepatitis: 0
[9]; Liver
  HepSE_hepatomegaly: 0
[10]; Liver
  HepSE_jaundice: 0
[11]; Liver
  HepSE_liver disease: 0
[12]; Liver
  HepSE_liver fatty: 0
[13]; Liver
  HepSE_liver function tests abnormal: 0
[14]; Liver
  HepSE_Combined Scores: 0

## C=C[C@H]1C[N@@]2CC[C@H]1C[C@@H]2[C@@H](O)c1ccnc2ccc(OC)cc12 [QUINIDINE]
[1]
  HepSE_bilirubinemia: 0
[2]
  HepSE_cholecystitis: 0
[3]
  HepSE_cholelithiasis: 0
[4]
  HepSE_cirrhosis: 0
[5]
  HepSE_elevated liver function tests: 0
[6]
  HepSE_hepatic failure: 0
[7]
  HepSE_hepatic necrosis: 0
[8]
  HepSE_hepatitis: 1
[9]
  HepSE_hepatomegaly: 0
[10]
  HepSE_jaundice: 1
[11]
  HepSE_liver disease: 0
[12]
  HepSE_liver fatty: 0
[13]
  HepSE_liver function tests abnormal: 1
[14]
  HepSE_Combined Scores: 3
